The record followed here is patent US12023334B2, “Composition including rilpivirine and method for treating tumors or cancer” (APTORUM THERAPEUTICS LIMITED, priority 2019, dated 2024).

For one assay, the system named is MES-SA. As to the kind of experiment: EC50 in cancer cell line, rilpivirine alone. Type of assay: cell-based. The following applies: Homo sapiens, Uterine sarcoma.
The test system of the next assay is IMR-32 tumor. As to the kind of experiment: Xenograft mouse model of neuroblastoma, tumor volume. The format is in vivo, female BALB/c nude mice. Conditions: rilpivirine 400 mg/kg once daily for 21 consecutive days, oral; p<0.05. The method, then: This study employed female BALB/c nude mice, aged 4-5 weeks, obtained from BioLasco Taiwan (under Charles River Laboratories Licensee). The animals were housed in individually ventilated cages (IVC, 36 Mini Isolator system). The allocation for 4 animals was 27×20×14 in cm. All the animals were maintained in a hygienic environment under controlled temperature (20-24° C.) and humidity (30%-70%) with 12-hour light/dark cycle. Free access to standard lab diet [MFG (Oriental Yeast Co., Ltd., Japan)] and autoclaved tap water were granted. All aspects of this work including housing, experimentation, and animal disposal were performed in general accordance with the “Guide for the Care and Use of Laboratory Animals: Eighth Edition” (National Academies Press, Washington, D.C., 2011) in our AAALAC-accredited laboratory animal facility. In addition, the animal care and use protocol was reviewed and approved by the IACUC at Pharmacology Discovery Services, Taiwan.
The IMR-32 tumor cell line was purchased from American Type Culture Collection (ATCC CCL-127, neuroblastoma) and cultured in Pharmacology Discovery Services, Taiwan. The cells were cultured in MEM medium containing 10% fetal bovine serum (FBS), 1 mM sodium pyruvate and 1 mM NEAA at 37° C. in 5% CO2 incubator. […] The tumor volume, body weight, mortality, and signs of overt toxicity were monitored and recorded twice weekly for 28 days. […]

The test system of a further assay is SK-N-SH cell line. As to the kind of experiment: MTT cell proliferation assay, SK-N-SH. The format is cell-based. The method, then:
(§1) In the present invention, the IC50 concentrations required to inhibit the activity of IMR-32 cell line and other neuroblastoma cell lines were determined for rilpivirine and other chemotherapeutic agents, and presented on the two-coordinate plot with x- and y-axes, forming the two points (IC50, rilpivirine, 0) and (0, IC50, chemotherapeutic agents). […] Moreover, the concentration or ratios of rilpivirine in combination with chemotherapeutic agents which provide the same inhibition effect are denoted as point (Crilpivirine, 50, Cchemotherapeutic agents, 50) in the same plot.
(§2) The combination index provides a quantitative measurement of the drug-drug interaction at the given effect level. The combination index (CI) is calculated by following equation: […]
(§3) The IMR-32, SK-N-SH, SH-SY5Y and SK-N-BE(2) tumor cell lines were purchased from American Type Culture Collection (ATCC, Manassas, VA). […] The cells were incubated for 72 hours and then cell proliferation was measured by 3-(4,5-dimethyl-2-thiazolyl)-2,5-diphenyl-2H-tetrazolium bromide (MTT) colorimetric assays (Sigma-Aldrich, Inc., St. Louis, MO). […] Absorbance of each well was measured with a spectrophotometer (uQuant SpectroMAX Gemini Dual-scanning microplate spectro, Bio-tek Instrument Inc.) at 550 nm. Growth inhibition was expressed as the ratio of the mean absorbance of treated cells relative to that of the control.
A general note: Tetrazolium dyes change colour on reduction, which living cells bring about.

A further assay has as its system HUH-6. As to the kind of experiment: EC50 in cancer cell line, rilpivirine alone. Type of assay: cell-based. Conditions: Homo sapiens, Liver.
The next assay relates to SNU-16. As to the kind of experiment: EC50 in cancer cell line, rilpivirine alone. Type of assay: cell-based. The following applies: Homo sapiens, Stomach.
A further assay has as its system PANC-1. In words: EC50 in cancer cell line, rilpivirine alone. Type of assay: cell-based. Conditions: Homo sapiens, Pancreas.
A further assay relates to SR. In words: EC50 in cancer cell line, rilpivirine alone. The format is cell-based. Conditions: Homo sapiens, Large cell immunoblastic lymphoma.
Another assay concerns SU-DHL-8. In words: EC50 in cancer cell line, rilpivirine alone. Type of assay: cell-based. The following applies: Homo sapiens, Large cell lymphoma.
Assay [1] has as its system cleaved poly (ADP-ribose) polymerase (PARP) and phosphor-histone H2A.X (p-H2A.X). In words: Expression of cleaved PARP and p-H2A.X in SH-SY5Y. Type of assay: cell-based. Conditions: increasing rilpivirine 0.12, 0.37, 1.11, 3.3, and 10 μM.
For the next assay, the system named is ST486. In words: EC50 in cancer cell line, rilpivirine alone. The format is cell-based. Conditions: Homo sapiens, Burkitt's lymphoma.
Assay [2] has as its system cleaved poly (ADP-ribose) polymerase (PARP) and phosphor-histone H2A.X (p-H2A.X). In words: Expression of cleaved PARP and p-H2A.X in SK-N-BE(2). Type of assay: cell-based. Conditions: increasing rilpivirine 0.12, 0.37, 1.11, 3.3, and 10 μM.
The next assay relates to MOLT-16. As to the kind of experiment: EC50 in cancer cell line, rilpivirine alone. Type of assay: cell-based. Conditions: Homo sapiens, Acute lymphoblastic leukemia.
The next assay relates to BxPC-3. As to the kind of experiment: EC50 in cancer cell line, rilpivirine alone. The format is cell-based. Conditions: Homo sapiens, Pancreas.
A further assay concerns IMR-32 cell line. In words: MTT cell proliferation assay, IMR-32. The format is cell-based, human. The method, then:
as §1, §2, §3

As usually defined, the EC50 is the concentration giving half of the maximal effect. Read a high EC50 as a less potent agent. What is called IC50 is the concentration at which inhibition is half-maximal. As to `Cc1cc(/C=C/C#N)cc(C)c1Nc1ccnc(Nc2ccc(C#N)cc2)n1` [rilpivirine], the EC50 in the assay with MES-SA came out at 4.91 µM; in the assay with HUH-6 it was 2.41 µM; in the assay with SNU-16 it was 4.23 µM; in the assay on PANC-1 it was 8.27 µM; with SR it was 3.78 µM; in the assay on SU-DHL-8 it was 4.19 µM. Further, the EC50 in the assay with ST486 is 3.76 µM; with MOLT-16 it was 3.38 µM; with BxPC-3, 11.3 µM. The “tumor growth compared to negative control group (vehicle)” value with IMR-32 tumor is recorded as “significantly inhibited”. Further, the “growth of neuroblastoma cell line under rilpivirine treatment” value in the assay on SK-N-SH cell line is reported as “successfully inhibited”. Further, the IC50 in the assay with SK-N-SH cell line (Homo sapiens, rilpivirine alone, 72 hours) amounted to 2.75 µM; in the assay with IMR-32 cell line (Homo sapiens, IMR-32, rilpivirine alone, 72 hours), 2.97 µM. Moreover, the “expression of cleaved PARP and p-H2A.X” value in assay [1] and in assay [2] was “increased gradually” throughout. Also, in the assay with IMR-32 cell line (5 μM rilpivirine treatment for 24 hours), the “growth of neuroblastoma cell line IMR-32” value is “significantly inhibited”.
